How the values were obtained:
δ-opioid receptor [1] = molecular target: T1, δ-opioid receptor (Homo sapiens, UniProt P41143); assay: IP accumulation, δ-opioid receptor coexpressed with Gα subunit in COS-7; format: cell-based; settings: for IP Formation Agonist / IP Formation % Res.: 100 nM DPDPE; for IP Formation % Res.: relative to basal; for stimulation of IP formation: 100 nM
T1 construct: expressed in transfected cells; host or cells: COS-7

melatonin Mel1b receptor = molecular target: T2, melatonin Mel1b receptor (Homo sapiens, UniProt P49286); assay: IP accumulation, melatonin Mel1b receptor coexpressed with Gα subunit in COS-7; format: cell-based; settings: 1 μM 2-iodomelatonin; for IP Formation % Res.: relative to basal
T2 construct: expressed in transfected cells; host or cells: COS-7
T2 sequence (P49286 1-362): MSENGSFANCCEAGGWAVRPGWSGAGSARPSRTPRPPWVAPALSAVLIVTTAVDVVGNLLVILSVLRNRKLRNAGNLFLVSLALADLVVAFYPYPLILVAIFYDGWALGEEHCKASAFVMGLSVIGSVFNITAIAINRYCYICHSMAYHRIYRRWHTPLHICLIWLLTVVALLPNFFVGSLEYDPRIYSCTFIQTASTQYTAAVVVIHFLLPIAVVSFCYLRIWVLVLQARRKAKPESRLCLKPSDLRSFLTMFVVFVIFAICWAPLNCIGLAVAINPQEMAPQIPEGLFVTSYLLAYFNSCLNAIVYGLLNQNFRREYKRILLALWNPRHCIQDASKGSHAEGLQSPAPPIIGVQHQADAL

melatonin Mel1c receptor = molecular target: T3, melatonin Mel1c receptor (Xenopus laevis, UniProt P49219); assay: IP accumulation, melatonin Mel1c receptor coexpressed with Gα subunit in COS-7; format: cell-based; settings: for IP Formation Agonist / IP Formation % Res.: 1 μM 2-iodomelatonin; for IP Formation % Res.: relative to basal
T3 construct: expressed in transfected cells; host or cells: COS-7
T3 sequence (P49219 1-420): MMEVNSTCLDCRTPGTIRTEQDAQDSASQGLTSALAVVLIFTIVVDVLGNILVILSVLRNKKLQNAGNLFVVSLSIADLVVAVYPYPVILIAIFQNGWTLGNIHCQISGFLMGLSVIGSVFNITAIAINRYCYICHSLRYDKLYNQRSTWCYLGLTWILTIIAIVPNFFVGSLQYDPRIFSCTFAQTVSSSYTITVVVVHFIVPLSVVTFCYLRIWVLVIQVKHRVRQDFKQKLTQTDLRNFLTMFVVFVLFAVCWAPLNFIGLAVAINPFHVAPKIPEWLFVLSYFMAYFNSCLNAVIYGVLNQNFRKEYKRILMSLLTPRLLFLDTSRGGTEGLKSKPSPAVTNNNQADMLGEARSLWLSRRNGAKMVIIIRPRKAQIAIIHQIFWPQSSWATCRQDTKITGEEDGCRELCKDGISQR

melatonin Mel1a receptor = molecular target: T4, melatonin Mel1a receptor (Homo sapiens, UniProt P48039); assay: IP accumulation, melatonin Mel1a receptor coexpressed with Gα subunit in COS-7; format: cell-based; settings: 1 μM 2-iodomelatonin; for IP Formation % Res.: relative to basal
T4 construct: expressed in transfected cells; host or cells: COS-7
T4 sequence (P48039 whole entry): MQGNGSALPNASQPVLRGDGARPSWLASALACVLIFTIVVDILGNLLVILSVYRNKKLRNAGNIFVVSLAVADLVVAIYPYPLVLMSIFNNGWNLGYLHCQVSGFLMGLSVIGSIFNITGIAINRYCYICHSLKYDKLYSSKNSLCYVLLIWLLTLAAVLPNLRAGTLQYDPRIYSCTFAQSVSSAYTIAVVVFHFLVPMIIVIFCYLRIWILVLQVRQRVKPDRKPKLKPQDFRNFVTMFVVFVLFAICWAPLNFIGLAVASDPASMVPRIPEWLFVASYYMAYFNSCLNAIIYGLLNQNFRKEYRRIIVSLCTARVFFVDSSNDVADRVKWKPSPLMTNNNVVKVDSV

[2] = molecular target: formyl peptide (fMLP) receptor
δ-opioid receptor [3] = molecular target: δ-opioid receptor
δ-opioid receptor [4] = molecular target: δ-opioid receptor; remark: listed apart in the source
[5] = COS-7, receptor + 16z25 chimera
[6] = COS-7, receptor + 16z44 chimera

T1 sequence (P41143 whole entry): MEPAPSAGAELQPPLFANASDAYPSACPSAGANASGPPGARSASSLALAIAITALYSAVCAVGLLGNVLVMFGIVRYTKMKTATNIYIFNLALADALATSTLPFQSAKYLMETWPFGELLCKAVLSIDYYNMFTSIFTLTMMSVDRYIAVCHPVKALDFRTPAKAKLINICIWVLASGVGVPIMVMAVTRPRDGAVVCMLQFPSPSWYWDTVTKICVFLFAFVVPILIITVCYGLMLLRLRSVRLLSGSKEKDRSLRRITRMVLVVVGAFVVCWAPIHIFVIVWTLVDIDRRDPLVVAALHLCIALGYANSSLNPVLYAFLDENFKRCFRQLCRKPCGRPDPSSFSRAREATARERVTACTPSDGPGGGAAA

With [D-Pen^2,D-Pen^5]enkephalin [DPDPE] the “IP Formation Agonist” value (δ-opioid receptor [1]; [5]) was 66.8 ± 7.1, the “IP Formation % Res.” value (δ-opioid receptor [1]; [5]) was 287% and the “IP Formation Agonist” value (δ-opioid receptor [1]; [6]) was 121.8 ± 9.1. The “IP Formation % Res.” value (δ-opioid receptor [1]; [6]) was 548%, the “IP Formation Agonist” value (δ-opioid receptor [1]; COS-7, receptor + Gα16) was 42.2 ± 6.1 and the “IP Formation % Res.” value (δ-opioid receptor [1]; COS-7, receptor + Gα16) was 417%. For the same compound, the “maximal stimulation, 16z44-mediated relative to Gα16-mediated response” value (δ-opioid receptor [1]; COS-7, δ-opioid receptor) was “twice that of the Gα16-mediated response”, the “DPDPE response (IP formation)” value (δ-opioid receptor [1]; COS-7, δ-opioid receptor + 16z3, 16z6 or 16z66) was “failed to mediate the DPDPE response” and the IP formation (δ-opioid receptor [1]; COS-7, δ-opioid receptor + 30z16) was “doubled the IP formation”. For the same compound, the “response to agonist-activated δ-opioid receptor (IP formation)” value (δ-opioid receptor [1]; COS-7, δ-opioid receptor + 30z16z66) was “unable to respond”, the “stimulation of IP formation” value (δ-opioid receptor [1]; COS-7 coexpressing Gα16 and δ-opioid receptor) was 3 fold and the “stimulation of IP formation” value (δ-opioid receptor [1]; COS-7 coexpressing δ-opioid receptor with either 16z25 or 16z44) was 3-4.5 folds. The “formation of IP” value (δ-opioid receptor [1]; COS-7 cotransfected with δ-opioid receptor and Gαz, agonist treatment) was “failed to evoke formation of IP”.

`COc1ccc2[nH]c(I)c(CCNC(C)=O)c2c1` [2-iodomelatonin] was tested, and the “IP Formation Agonist” value (melatonin Mel1b receptor; [5]) was 108.3 ± 3.6, the “IP Formation % Res.” value (melatonin Mel1b receptor; [5]) was 155% and the “IP Formation Agonist” value (melatonin Mel1b receptor; [6]) was 113.2 ± 7.3. For the same compound, the “IP Formation % Res.” value (melatonin Mel1b receptor; [6]) was 177%, the “IP Formation Agonist” value (melatonin Mel1b receptor; COS-7, receptor + Gα16) was 31.7 ± 2.3 and the “IP Formation % Res.” value (melatonin Mel1b receptor; COS-7, receptor + Gα16) was 195%. For the same compound, the EC50 (melatonin Mel1c receptor; COS-7, Mel1c + 16z44, read-out: EC50, formation of IP) was ~0.4 nM, the “stimulation of PLC activity” value (melatonin Mel1c receptor; COS-7, Mel1c + Gα16, 0.03-100 nM) was “did not stimulate PLC activity” and the “IP Formation Agonist” value (melatonin Mel1c receptor; [5]) was 42.5 ± 6.7. The “IP Formation % Res.” value (melatonin Mel1c receptor; [5]) was 270%, the “IP Formation Agonist” value (melatonin Mel1c receptor; [6]) was 86.8 ± 7.0 and the “IP Formation % Res.” value (melatonin Mel1c receptor; [6]) was 307%. For the same compound, the “IP Formation % Res.” value (melatonin Mel1c receptor; COS-7, receptor + Gα16) was 115%, the “IP Formation Agonist” value (melatonin Mel1a receptor; [5]) was 80.4 ± 4.0 and the “IP Formation % Res.” value (melatonin Mel1a receptor; [5]) was 150%. For the same compound, the “IP Formation Agonist” value (melatonin Mel1a receptor; [6]) was 91.9 ± 8.8, the “IP Formation % Res.” value (melatonin Mel1a receptor; [6]) was 171% and the “IP Formation Agonist” value (melatonin Mel1a receptor; COS-7, receptor + Gα16) was 45.6 ± 6.0. The “IP Formation % Res.” value (melatonin Mel1a receptor; COS-7, receptor + Gα16) was 296%.

For “N-formylmethionyl-leucyl-phenylalanine (peptide)”, the IP formation with agonist (cells coexpressing 16z44) (IP formation (unit not given)) [2] was 91.6.

In the case of [D-Pen^2,D-Pen^5]enkephalin (peptide), the IP formation with agonist (cells coexpressing 16z44) (IP formation (unit not given)) (δ-opioid receptor [3]) is reported as 122, the EC50 for IP formation (cells coexpressing 16z44) (δ-opioid receptor [4]) is reported as 10 nM and the EC50 for IP formation (cells coexpressing Gα16) (δ-opioid receptor [4]) is reported as 40 nM.

“[D-Ala^2,N-Me-Phe^4,Gly^5-ol]enkephalin (peptide)” gave an IP formation with agonist (cells coexpressing 16z44) (IP formation (unit not given)) (µ-opioid receptor) of 68.5.

Work on vasopressin (peptide) yielded an IP formation with agonist (cells coexpressing 16z44) (IP formation (unit not given)) (vasopressin V2 receptor) of 59.8.

From patent publication US6462178B1, “G protein” (Yong Hou Wong, priority 1999, dated 2002)
